Reference: patent publication US8846656B2, “Tetrahydropyrido-pyridine and tetrahydropyrido-pyrimidine compounds and use thereof as C5a receptor modulators” (Novartis AG, priority 2011, dated 2014)

Biological target: human C5aR (Homo sapiens (Human), UniProt P21730)
Assay: FLIPR assay: inhibition of C5a-mediated calcium mobilization
Type: cell-based
Conditions: stable cell line over expressing human C5aR & Gα15, human C5a at EC50 (0.1-0.25 nM)
Procedure: Compounds were tested for their ability to inhibit C5a-mediated calcium mobilization using a stable cell line over expressing the human C5aR & the Gα15 protein on the FLIPR (Fluorescent Imaging Plate Reader) Tetra system. Cells were maintained in culture media containing DMEM (Dulbecco's Modified Eagle Medium) with 4.5 g/L glucose, 10% fetal bovine serum, 100 U/mL, 1× non-essential amino acid, and 250 μg/mL G418 (Geneticin). Prior to testing of compounds, cells were plated at 10,000 cells/well in clear bottom 384-well black plate, and incubated overnight at 37° C. with 5% CO2. On the day of experiment, culture media was removed, and replaced with assay buffer HBSS (Hanks' Balanced Salt Solution) with 20 mM HEPES (4-(2-hydroxyethyl)-1-piperazineethanesulfonic acid) and 0.1% BSA (bovine serum albumin) BSA containing calcium 5 dye (Molecular Devices) and 2.5 mM probenecid. After 1 hour incubation at 37° C., 5% CO2 for 60 min, cells were pre-incubated with compounds for 30 minutes at room temperature, in 1% DMSO (dimethyl sulfoxide).

Sequence of human C5aR (P21730 whole entry): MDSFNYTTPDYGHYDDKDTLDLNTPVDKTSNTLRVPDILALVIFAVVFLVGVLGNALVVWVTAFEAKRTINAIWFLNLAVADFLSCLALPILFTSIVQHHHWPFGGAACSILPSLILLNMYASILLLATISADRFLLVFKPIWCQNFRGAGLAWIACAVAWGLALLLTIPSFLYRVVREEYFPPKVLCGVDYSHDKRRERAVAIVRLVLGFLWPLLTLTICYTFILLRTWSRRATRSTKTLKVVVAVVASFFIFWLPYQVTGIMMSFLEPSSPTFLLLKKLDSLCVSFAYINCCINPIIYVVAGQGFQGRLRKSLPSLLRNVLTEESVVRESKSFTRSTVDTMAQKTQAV

| SMILES | IC50 [nM] |
| --- | --- |
| [2H]C1([2H])c2c(C)cc(-c3c(CC)cccc3CC)nc2CC(C)N1c1cc(C(C)C)ccc1C (single isomer, unassigned) [Example 42-K, 2-(2,6-diethylphenyl)-6-(5-isopropyl-2-methylphenyl)-4,7-dimethyl-5,6,7,8-tetrahydro(5,5-^2H2)-1,6-naphthyridine] | 217 |
| [2H]C1([2H])c2c(C)cc(-c3c(CC)cccc3CC)nc2CC(C)N1c1cc(C(C)C)ccc1C (single isomer, unassigned) [Example 42-L, 2-(2,6-diethylphenyl)-6-(5-isopropyl-2-methylphenyl)-4,7-dimethyl-5,6,7,8-tetrahydro(5,5-^2H2)-1,6-naphthyridine] | 4 |
| Cc1cccc(C)c1-c1nc2c(c(N3CCCC(C)(C)C3)n1)CN(c1cc(C(C)C)nn1C)CC2 [Example 16-I, 2-(2,6-Dimethylphenyl)-4-(3,3-dimethylpiperidin-1-yl)-6-(3-isopropyl-1-methyl-1H-pyrazol-5-yl)-5,6,7,8-tetrdhydropyrido[4,3-d]pyrimidine] | 48 |
| Cc1ccc(C(C)C)cc1N1CCc2nc(-c3cccc4[nH]cc(C)c34)nc(N3CCC(O)C(C)(C)C3)c2C1 (stereo not drawn) [Example 17-AI, l-(6-(5-isopropyl-2-methylphenyl)-2-(3-methyl-1H-indol-4-yl)-5,6,7,8-tetrahydropyrido[4,3-d]pyrimidin-4-yl)-3,3-dimethylpiperidin-4-ol] | 19 |
| CNc1nc(-c2cccc3[nH]cc(C)c23)nc2c1CN(c1cc(C(C)C)ccc1C)CC2 [Example 17-AJ, 6-(5-isopropyl-2-methylphenyl)-N-methyl-2-(3-methyl-1H-indol-4-yl)-5,6,7,8-tetrahydropyrido[4,3-d]pyrimidin-4-amine] | 94 |
| CO[C@@H]1CCN(c2nc(-c3cccc4[nH]cc(C)c34)nc3c2CN(c2cc(C(C)C)ccc2C)CC3)CC1(C)C [Example 17-AM, (R)-6-(5-Isopropyl-2-methylphenyl)-4-(4-methoxy-3,3-dimethylpiperidin-1-yl)-2-(3-methyl-1H-indol-4-yl)-5,6,7,8-tetrahydropyrido[4,3-d]pyrimidine] | 2 |
| Cc1ccc(C(C)C)cc1N1CCc2nc(-c3cccc4[nH]cc(C)c34)nc(N3CCC[C@H](O)C3)c2C1 [Example 17-AV, (S)-1-(6-(5-isopropyl-2-methylphenyl)-2-(3-methyl-1H-indol-4-yl)-5,6,7,8-tetrahydropyrido[4,3-d]pyrimidin-4-yl)piperidin-3-ol] | 12 |
| Cc1ccc(C(C)C)cc1N1CCc2nc(-c3cccc4[nH]cc(C)c34)nc(N3CCC[C@@H]3CO)c2C1 [Example 17-AZ, (R)-(1-(6-(5-isopropyl-2-methylphenyl)-2-(3-methyl-1H-indol-4-yl)-5,6,7,8-tetrahydropyrido[4,3-d]pyrimidin-4-yl)pyrrolidin-2-yl)methanol] | 39 |
| Cc1ccc(C(C)C)cc1N1CCc2nc(-c3cccc4[nH]cc(C)c34)nc(N3CC4(COC4)C3)c2C1 [Example 17-BE, 6-(6-(5-isopropyl-2-methylphenyl)-2-(3-methyl-1H-indol-4-yl)-5,6,7,8-tetrahydropyrido[4,3-d]pyrimidin-4-yl)-2-oxa-6-azaspiro[3.3]heptanes] | 415 |
| Cc1ccc(C(C)C)cc1N1CCc2nc(-c3cccc4[nH]cc(C)c34)nc(N3CC(N(C)C)C3)c2C1 [Example 17-BG, 1-(6-(5-isopropyl-2-methylphenyl)-2-(3-methyl-1H-indol-4-yl)-5,6,7,8-tetrahydropyrido[4,3-d]pyrimidin-4-yl)-N,N-dimethylazetidin-3-amine] | 15 |
| Cc1ccc(C(C)C)cc1N1CCc2nc(-c3cccc4[nH]cc(C)c34)nc(N[C@@H](CO)C(C)C)c2C1 [Example 17-M, (R)-2-((6-(5-isopropyl-2-methylphenyl)-2-(3-methyl-1H-indol-4-yl)-5,6,7,8-tetrahydropyrido[4,3-d]pyrimidin-4-yl)amino)-3-methylbutan-1-ol] | 30 |
| Cc1ccccc1N1CCc2nc(-c3c(C)cccc3C)nc(N3CCOC(C)(C)C3)c2C1 [Example 17-Y, 4-(2-(2,6-dimethylphenyl)-6-(o-tolyl)-5,6,7,8-tetrahydropyrido[4,3-d]pyrimidin-4-yl)-2,2-dimethylmorpholine] | 160 |
| CO[C@H]1CCN(c2nc(-c3ccccc3C(F)(F)F)nc3c2CN(c2cc(C4CC4)ccc2C)CC3)CC1(C)C [Example 19-K, (S)-6-(5-cyclopropyl-2-methylphenyl)-4-(4-methoxy-3,3-dimethylpiperidin-1-yl)-2-(2-(trifluoromethyl)phenyl)-5,6,7,8-tetrahydropyrido[4,3-d]pyrimidine] | 65 |
| CO[C@H]1CCN(c2nc(-c3cccc4cnn(C)c34)nc3c2CN(c2cc(C4(C)COC4)ccc2C)CC3)CC1(C)C [Example 19-L, (S)-4-(4-methoxy-3,3-dimethylpiperidin-1-yl)-2-(1-methyl-1H-indazol-7-yl)-6-(2-methyl-5-(3-methyloxetan-3-yl)phenyl)-5,6,7,8-tetrahydropyrido[4,3-d]pyrimidine] | 746 |
| CO[C@H]1CCN(c2nc(-c3cccc4[nH]cc(C)c34)nc3c2CN(c2cc(C4CC4)ccc2C)CC3)CC1(C)C [Example 19-N, (S)-6-(5-cyclopropyl-2-methylphenyl)-4-(4-methoxy-3,3-dimethylpiperidin-1-yl)-2-(3-methyl-1H-indol-4-yl)-5,6,7,8-tetrahydropyrido[4,3-d]pyrimidine] | 29 |
| COc1ccc(Cl)cc1-c1nc2c(c(N3CCCC(C)(C)C3)n1)CN(c1cc(C(C)C)ccc1C)CC2 [Example 19-Q, 2-(5-chloro-2-methoxyphenyl)-4-(3,3-dimethylpiperidin-1-yl)-6-(5-isopropyl-2-methylphenyl)-5,6,7,8-tetrahydropyrido[4,3-d]pyrimidine] | 112 |
| Cc1ccc(C(C)C)cc1N1CCc2nc(-c3c(C4CC4)cnc4[nH]ccc34)nc(N3CCCC(C)(C)C3)c2C1 [Example 20-D, 2-(5-Cyclopropyl-1H-pyrrolo[2,3-b]pyridin-4-yl)-4-(3,3-dimethylpiperidin-1-yl)-6-(5-isopropyl-2-methylphenyl)-5,6,7,8-tetrahydropyrido[4,3-d]pyrimidine] | 164 |
| CO[C@H]1C[C@H]2CC[C@@H](C1)N2c1nc(-c2c(C)cccc2C)nc2c1CN(c1cc(C3(C)COC3)ccc1C)CC2 [Example 21-X, 2-(2,6-dimethylphenyl)-4-((3-endo)-3-methoxy-8-azabicyclo[3.2.1]octan-8-yl)-6-(2-methyl-5-(3-methyloxetan-3-yl)phenyl)-5,6,7,8-tetrahydropyrido[4,3-d]pyrimidine] | 308 |
| Cc1ccc(C)c(-c2nc3c(c(N4CCN(CC(N)=O)C[C@H]4C)n2)CN(c2cc(C(C)C)ccc2C)CC3)c1 [Example 24-C, (R)-2-(4-(2-(2,5-Dimethylphenyl)-6-(5-isopropyl-2-methylphenyl)-5,6,7,8-tetrahydropyrido[4,3-d]pyrimidin-4-yl)-3-methylpiperazin-1-yl)acetamide] | 31 |
| Cc1c[nH]c2cccc(-c3nc4c(c(N5CCN(CC(N)=O)[C@H](C)C5)n3)CN(c3ccc(F)cc3F)CC4)c12 [Example 24-I, (R)-2-(4-(6-(2,4-difluorophenyl)-2-(3-methyl-1H-indol-4-yl)-5,6,7,8-tetrahydropyrido[4,3-d]pyrimidin-4-yl)-2-methylpiperazin-1-yl)acetamide] | 464 |
| CC(=O)N1CCN(c2nc(-c3ccccc3C(F)(F)F)nc3c2CN(c2cc(C(C)C)ccc2C)CC3)[C@H](C)C1 [Example 25-F, (R)-1-(4-(6-(5-isopropyl-2-methylphenyl)-2-(2-(trifluoromethyl)phenyl)-5,6,7,8-tetrahydropyrido[4,3-d]pyrimidin-4-yl)-3-methylpiperazin-1-yl)ethanone] | 23 |
| COCCCOc1nc(-c2c(C)cccc2C)nc2c1CN(c1cc(C(C)C)ccc1C)CC2 [Example 39-D, 2-(2,6-Dimethylphenyl)-6-(5-isopropyl-2-methylphenyl)-4-(3-methoxypropoxy)-5,6,7,8-tetrahydropyrido[4,3-d]pyrimidine] | 74 |
| CCc1cccc(CC)c1-c1cc(C)c2c(n1)CCN(c1ccc(C)cc1C)C2 [Example 40-L, 2-(2,6-diethylphenyl)-6-(2,4-dimethylphenyl)-4-methyl-5,6,7,8-tetrahydro-1,6-naphthyridine] | 180 |
| CCn1nc(C)c(N2CCc3nc(-c4c(C)ccc5[nH]ncc45)cc(C)c3C2)c1C [Example 40-P, 6-(1-ethyl-3,5-dimethyl-1H-pyrazol-4-yl)-4-methyl-2-(5-methyl-1H-indazol-4-yl)-5,6,7,8-tetrahydro-1,6-naphthyridine] | 37 |
| Cc1cc(-c2c(C)ccc3[nH]ncc23)nc2c1CN(c1cc(C3CC3)nn1C)CC2 [Example 40-Q, 6-(3-cyclopropyl-1-methyl-1H-pyrazol-5-yl)-4-methyl-2-(5-methyl-1H-indazol-4-yl)-5,6,7,8-tetrahydro-1,6-naphthyridine] | 868 |
| Cc1ccc(C(C)C)cc1N1CCc2nc(-c3cccc4[nH]nc(C)c34)cc(C)c2C1 [Example 41-E, 6-(5-isopropyl-2-methylphenyl)-4-methyl-2-(3-methyl-1H-indazol-4-yl)-5,6,7,8-tetrahydro-1,6-naphthyridine] | 21 |
| COc1ccc(Cl)c(-c2cc(C)c3c(n2)CCN(c2cc(C(C)C)ccc2C)C3)c1 [Example 41-F, 2-(2-chloro-5-methoxyphenyl)-6-(5-isopropyl-2-methylphenyl)-4-methyl-5,6,7,8-tetrahydro-1,6-naphthyridine] | 550 |
